Reference: ChEMBL document CHEMBL1201862, “PubChem BioAssay data set” (2004)
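Method: 48-hour compound exposure of cells in 96-well plates, five concentrations, linear interpolation of endpoints. Abbreviation: GI50, concentration required for 50% inhibition of growth.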 Activity calls are given as the source filed them. Cut-off read from the data, not from the text of the source: active = GI50 up to about 1.1 µM and inactive = higher. Where a SMILES comes first, the peptide text is derived from it. [ ]: non-standard residue; d: D form. The star is where a group is joined. Bn2Val = CC(C)[C@@H](C(=O)*)N(Cc1ccccc1)Cc1ccccc1; NH(4-F-benzyl) = Fc1ccc(CN*)cc1; NMeV = CN[C@H](C(=O)O)C(C)C; dNMeA = CN[C@H](C)C(=O)O

Columns and labels:
Assay in all cases: NCI tumour cell line growth inhibition, 48 h
ACHN = tested on: ACHN
BT-549 = tested on: BT-549
HCC 2998 = tested on: HCC 2998
HT-29 = tested on: HT-29
K562 = tested on: K562
KM12 = tested on: KM12
MDA-MB-231 = tested on: MDA-MB-231
MDA-MB-435 = tested on: MDA-MB-435
NCI-H226 = tested on: NCI-H226
NCI/ADR-RES = tested on: NCI/ADR-RES
OVCAR-8 = tested on: OVCAR-8
PC-3 = tested on: PC-3
RPMI-8226 = tested on: RPMI-8226
RXF 393 = tested on: RXF 393
SK-MEL-28 = tested on: SK-MEL-28
SNB-19 = tested on: SNB-19
TK-10 = tested on: TK-10
U-251 = tested on: U-251
UACC-257 = tested on: UACC-257
UACC-62 = tested on: UACC-62

Oc1ccc(NCc2cc(O)ccc2O)cc1
GI50 (ACHN): 16.1 µM (inactive) | GI50 (BT-549): 12.7 µM (inactive) | GI50 (HCC 2998): 16.9 µM (inactive) | GI50 (HT-29): 22.6 µM (inactive) | GI50 (K562): 19.2 µM (inactive) | GI50 (KM12): 21.7 µM (inactive) | GI50 (MDA-MB-231): 13.2 µM (inactive) | GI50 (MDA-MB-435): 16.4 µM (inactive) | GI50 (NCI-H226): 18.9 µM (inactive) | GI50 (NCI/ADR-RES): 18.4 µM (inactive) | GI50 (OVCAR-8): 25.8 µM (inactive) | GI50 (PC-3): 14.9 µM (inactive) | GI50 (RPMI-8226): 4.99 µM (inactive) | GI50 (RXF 393): 15.3 µM (inactive) | GI50 (SK-MEL-28): 22.3 µM (inactive) | GI50 (SNB-19): 18.5 µM (inactive) | GI50 (TK-10): 16 µM (inactive) | GI50 (U-251): 15.7 µM (inactive) | GI50 (UACC-257): 14.9 µM (inactive) | GI50 (UACC-62): 15.4 µM (inactive)

[O-][n+]1ccccc1Sc1nc(Sc2cccc[n+]2[O-])nc(Sc2cccc[n+]2[O-])n1
GI50 (ACHN): 1.54 µM (inactive) | GI50 (BT-549): 1.61 µM (inactive) | GI50 (HCC 2998): 1.51 µM (inactive) | GI50 (HT-29): 1.19 µM (inactive) | GI50 (K562): 0.279 µM (active) | GI50 (KM12): 1.88 µM (inactive) | GI50 (MDA-MB-231): 1.38 µM (inactive) | GI50 (MDA-MB-435): 1.07 µM (active) | GI50 (NCI-H226): 2.42 µM (inactive) | GI50 (NCI/ADR-RES): 2.92 µM (inactive) | GI50 (OVCAR-8): 0.569 µM (active) | GI50 (PC-3): 0.726 µM (active) | GI50 (RPMI-8226): 0.385 µM (active) | GI50 (RXF 393): 0.444 µM (active) | GI50 (SK-MEL-28): 0.697 µM (active) | GI50 (SNB-19): 13 µM (inactive) | GI50 (TK-10): 1.76 µM (inactive) | GI50 (U-251): 1.69 µM (inactive) | GI50 (UACC-257): 2.4 µM (inactive) | GI50 (UACC-62): 1.22 µM (inactive)

CC(C)[C@H](NC(=O)[C@H](C(C)C)N(Cc1ccccc1)Cc1ccccc1)C(=O)N(C)[C@H](C(=O)N1CCC[C@H]1C(=O)N(C)[C@H](C)C(=O)NCc1ccc(F)cc1)C(C)C (Bn2Val-V[NMeV]P[dNMeA]-{NH(4-F-benzyl)})
GI50 (ACHN): 3.33 µM (inactive) | GI50 (BT-549): 4.06 µM (inactive) | GI50 (HCC 2998): 3.48 µM (inactive) | GI50 (HT-29): 1.95 µM (inactive) | GI50 (K562): 3.78 µM (inactive) | GI50 (KM12): 4.24 µM (inactive) | GI50 (MDA-MB-231): 3.55 µM (inactive) | GI50 (MDA-MB-435): 3.67 µM (inactive) | GI50 (NCI-H226): 2.65 µM (inactive) | GI50 (NCI/ADR-RES): 4.38 µM (inactive) | GI50 (OVCAR-8): 4.01 µM (inactive) | GI50 (PC-3): 3.18 µM (inactive) | GI50 (RPMI-8226): 3.27 µM (inactive) | GI50 (RXF 393): 2.34 µM (inactive) | GI50 (SK-MEL-28): 7.29 µM (inactive) | GI50 (SNB-19): 4.88 µM (inactive) | GI50 (TK-10): 5.48 µM (inactive) | GI50 (U-251): 3.3 µM (inactive) | GI50 (UACC-257): 5.19 µM (inactive) | GI50 (UACC-62): 2.96 µM (inactive)
